# Read-outs that look alike come from different tables or passages of the source.
# Legend:
# Corynebacterium Xerosis = test: minimum inhibitory concentration against skin bacteria; type: cell-based
# Experimental: This effect is unexpected since the presence of cations other than those of first transition series elements would be expected to inhibit the rate and extent of complexation of the first transition series elements by both the cyclic and linear chelators, albeit to differing degrees.
# Two chelators were compared in terms of their minimum inhibitory concentrations (MIC) against the common skin bacteria Corynebacterium Xerosis in media containing either 3.7 mg/L or 137 mg/L of Ca(II). The two chelators were N,N′,N″-tri(dihydroxyphosphoryl methyl)-1,4,7-triazacyclononane (within the scope of the present invention) and diethylene triamine pentaacetic acid (DTPA) (outside the scope of the present invention). The MIC for the triazacyclononane was 8 μg/mL in medium containing 3.7 mg/L of Ca(II), and 5 μg/mL in medium containing 137 mg/L of Ca(II).
# Laboratory mice = test: acute in vivo toxicity, single intravenous dose to mice; details: 3.0 mM/kg single intravenous dose
# Experimental: This example illustrates the low in vivo toxicity of a representative example of the chelators of this invention upon administration to mice.
# Laboratory mice were treated by the intravenous administration of 3.0 mM/kg intravenously of the sodium salt of N,N′,N″-tris(dihydroxyphosphoryl-methyl)-1,4,7-triazacyclononane as a single intravenous dose. […] This in vivo LD50 toxicity dose results in an instantaneous in vivo concentration which is orders of magnitude greater than the dose of this agent which inhibits mammalian cell replication in vitro (0.009 mM/L).
# [1] = tested on: mammalian cell replication; test: inhibition of mammalian cell replication in vitro; type: cell-based
# [2] = room temperature; cited from earlier work
# [3] = tested on: HFF (human foreskin fibroblasts); test: toxicity toward nonproliferating mammalian cells in vitro; type: cell-based; details: 0.3 mM; mature, nonreplicating HFF cultures in maintenance media; five-day period of observation
# Experimental: This example illustrates the relatively low toxicity of a representative example of the chelators of this invention toward nonproliferating mammalian cells in vitro.
# To mature, nonreplicating cultures of HFF (human foreskin fibroblasts) kept in maintenance media was added N,N′,N″-tris(dihydroxyphosphorylmethyl)-1,4,7-triazacyclononane at a concentration of 0.3 mM. No effect on the resting cells was observed over a five-day period of observation.
# Sprague Dawley rats = test: subacute toxicity, repeated intravenous doses to rats; type: in vivo; details: 0.05 millimoles per kg i.v. on 10 days
# Text: Ten male Sprague Dawley rats 29 days old and weighing between 73.4 and 87.8 grams at the beginning of the experiment were randomized, employing the block stratification method, into two groups consisting of five rats each. On each of days 1, 2, 3, 6, 7, 8, 9, 10,13 and 14 of the experiment one set of rats received an intravenous dose of N,N′,N″-tri(dihydroxyphosphoryl methyl)-1,4,7-triazacyclononane equal to 0.05 millimoles per kg of initial body weight (experimental group) while the other group received an equivalent volume of normal saline solution. The weights of the animals were recorded three times per week and the animals were sacrificed on the 28th day, major organs removed and weighed and tissues removed for microscopic examination.
smiles,measurement,setting,value
"O=C(O)CN(CCN(CC(=O)O)CC(=O)O)CCN(CC(=O)O)CC(=O)O [DTPA, diethylene triamine pentaacetic acid, reference compound]",MIC,Corynebacterium Xerosis; medium containing 3.7 mg/L of Ca(II),36 µg/mL
same,MIC,Corynebacterium Xerosis; medium containing 137 mg/L of Ca(II),320 µg/mL
"O=P([O-])([O-])CN1CCN(CP(=O)(O)O)CCN(CP(=O)(O)O)CC1.[Na+].[Na+] [sodium salt of N,N′,N″-tris(dihydroxyphosphoryl-methyl)-1,4,7-triazacyclononane]",mice surviving for over 14 days,Laboratory mice,Over 50%
same,dose which inhibits mammalian cell replication in vitro,[1],0.009 mM/L
"O=P(O)(O)CN1CCN(CP(=O)(O)O)CCN(CP(=O)(O)O)CC1 [N,N′,N″-Tris-(dihydroxyphosphorylmethyl)-1,4,7-triazacyclononane]",MIC,"Corynebacterium Xerosis; Corynebacterium xerosis, medium containing 3.7 mg/L of Ca(II), read-out: MIC",8 µg/mL
same,MIC,"Corynebacterium Xerosis; Corynebacterium xerosis, medium containing 137 mg/L of Ca(II), read-out: MIC",5 µg/mL
same,time to achieve equilibrium with the cations,[2],many months
same,effect on the resting cells,[3],No effect
same,differences between tissues upon microscopic examination of major organs vs control group,Sprague Dawley rats; necropsy on the 28th day,no differences
same,difference in weight or rate of weight gain vs control group,Sprague Dawley rats; period of injections and two-week post-injection period,no statistically significant difference
same,differences in weights of major organs vs control group,Sprague Dawley rats; sacrificed on the 28th day,no differences
